We go through 7 sequences from US20040185499A1, “Method of epitope scanning using fluorescence polarization” (priority 2003, published 2004).

Where no end group is shown, it is not given here. The star is where a group is joined. 6FAM = O=C1OC2(c3ccc(O)cc3Oc3cc(O)ccc32)c2cc(C(=O)*)ccc21

The test has as its system antibodies to MPB70 in M. bovis positive bovine serum. The test is classed as binding. The note with it: pH 7.5.
Regarding “AASNNPELTTLTAAL (6FAM-AASNNPELTTLTAAL; listed as Mycobacterium bovis) [Peptide 19]”, the “increase in fluorescence polarization with M. bovis positive bovine serum sample” value (“increase in fluorescence polarization” for short) is “substantial increase in fluorescence polarization”. Turning to “ASNNPELTTLTAALS (6FAM-ASNNPELTTLTAALS; listed as Mycobacterium bovis) [Peptide 20]”, the “increase in fluorescence polarization” value was “substantial increase in fluorescence polarization”. For “AVAASNNPELTTLTA (6FAM-AVAASNNPELTTLTA; listed as Mycobacterium bovis) [Peptide 17]”, the “increase in fluorescence polarization” value is “substantial increase in fluorescence polarization”. “NNPELTTLTAALSGQ (6FAM-NNPELTTLTAALSGQ; listed as Mycobacterium bovis) [Peptide 22]”: the “increase in fluorescence polarization” value was “substantial increase in fluorescence polarization”. For “SNNPELTTLTAALSG (6FAM-SNNPELTTLTAALSG; listed as Mycobacterium bovis) [Peptide 21]” the value was “substantial increase in fluorescence polarization”; for “VAASNNPELTTLTAA (6FAM-VAASNNPELTTLTAA; listed as Mycobacterium bovis) [Peptide 18]”, “substantial increase in fluorescence polarization”; for “VAVAASNNPELTTLT (6FAM-VAVAASNNPELTTLT; listed as Mycobacterium bovis) [Peptide 16]”, “substantial increase in fluorescence polarization”.
